From US7320981B2, “Variolin derivatives as anti-cancer agents” (Pharma Mar, S.A., priority 2000, dated 2008)
Like-named read-outs stand apart in the source and are kept apart here.

Key:
HT-29 = test: SRB cell growth/viability assay, HT-29; conditions: for GI50 / CC50: Homo sapiens, HT-29, 48 h
Text: (§1) A colorimetric type of assay, using sulforhodamine B (SRB) reaction has been adapted for a quantitative measurement of cell growth and viability: see Skehan, P. A. et al. J. Natl. Cancer Inst., 1990, 82, 1107-1112. This form of the assay employs 96 well cell culture microplates of 9 mm diameter (Faircloth, G. T.; Stewart, D. and Clement, J. J., Journal of Tissue and Culture Methods, 1983, 11, 201-205; Mosmann, T. Journal of Immunological Methods, 1983, 65, 55-63.).
(§2) Most of the cell lines are obtained from American Type Culture Collection (ATCC) derived from different human cancer types. Cells are maintained in RPMI 1640 10% FBS, supplemented with 0.1 g/l penicillin and 0.1 g/l streptomycin sulfate and then incubated at 37° C., 5% CO2 and 98% humidity. For the experiments, cells were harvested from subconfluent cultures using trypsin and resuspended in fresh medium before plating.
(§3) Cells are seeded in 96 well microtiter plates, at 5×10^3 cells per well in aliquots of 195 μl medium, and they are allowed to attach to the plate surface by growing in drug free medium for 18 hours. Afterward, samples are in aliquots of 5 pi in a ranging from 10 to 10-8 μg/ml dissolved in DMSO/EtOH (0.2% in PS buffer). After 48 hours exposure, the antitumour effect are measured by the SRB methodology: cells are fixed by adding 50 μl of cold 50% (w/v) trichloroacetic acid (TCA) and incubating for 60 minutes at 4° C. Plates are washed with deionized water and dried. 100 μl of SRB solution (0.4% w/v in 1% acetic acid) is added to each microtiter well and incubated for 10 minutes at room temperature. Unbound SRB is removed by washing with 1% acetic acid. Plates are air-dried and bound stain is solubilized with Tris buffer. Optical densities are read on an automated spectrophotometric plate reader at a single wavelength of 490 nm.
(§4) The values for mean +/− SD of data from triplicate wells are calculated Some parameters for cellular responses can be calculated: […], TGI=total growth inhibition (cytostatic effect) and LC=cell killing (cytotoxic effect).

DU-145 = test: SRB cell growth/viability assay, DU-145; conditions: for GI50 / CC50: Homo sapiens, DU-145, 48 h; for GI50: read-out: GI50 (50% growth inhibition); for CC50: read-out: LC50 (50% net cell killing, cytotoxic effect)
Text: as §1, §2, §3, §4

SW-620 = test: SRB cell growth/viability assay, SW-620; conditions: for GI50 / CC50: Homo sapiens, SW-620, 48 h; for GI50: read-out: GI50 (50% growth inhibition); for CC50: read-out: LC50 (50% net cell killing, cytotoxic effect)
Text: as §1, §2, §3, §4

MCF-7 = test: SRB cell growth/viability assay, MCF-7; conditions: for GI50 / CC50: Homo sapiens, MCF7, 48 h; for GI50: read-out: GI50 (50% growth inhibition); for CC50: read-out: LC50 (50% net cell killing, cytotoxic effect)
Text: as §1, §2, §3, §4

MB-231 = test: SRB cell growth/viability assay, MB-231; conditions: for GI50 / CC50: Homo sapiens; for GI50: read-out: GI50 (50% growth inhibition); for CC50: read-out: LC50 (50% net cell killing, cytotoxic effect)
Text: as §1, §2, §3, §4

A498 = test: SRB cell growth/viability assay, A498; conditions: for GI50 / CC50: Homo sapiens, A498, 48 h; for GI50: read-out: GI50 (50% growth inhibition); for CC50: read-out: LC50 (50% net cell killing, cytotoxic effect)
Text: as §1, §2, §3, §4

A-549 = test: SRB cell growth/viability assay, A-549; conditions: for GI50 / CC50: Homo sapiens, A549, 48 h
Text: as §1, §2, §3, §4

MEL-28 = test: SRB cell growth/viability assay, MEL-28; conditions: for GI50 / CC50: Homo sapiens, SK-MEL-28, 48 h; for GI50: read-out: GI50 (50% growth inhibition); for CC50: read-out: LC50 (50% net cell killing, cytotoxic effect)
Text: as §1, §2, §3, §4

OVCAR-3 = test: cells; assay type: cell-based
Text: Plates are washed with deionized water and dried.

[1] = read-out: GI50 (50% growth inhibition)
[2] = read-out: LC50 (50% net cell killing, cytotoxic effect)

Nc1nccc(-c2c3c(O)ccnc3n3c(N)nccc23)n1 [Compound 1, Variolin B]
TGI (total growth inhibition, cytostatic effect) (HT-29; 48 h): 1.E−06 M
GI50 (HT-29; [1]): 700 nM
GI50 (HT-29; read-out: HT-29 GI50): 1000 nM
CC50 (HT-29; read-out: HT-29 LC50): > 170 µM
CC50 (HT-29; [2]): 3 µM
HT-29 TGI (HT-29; Table 2, HT-29, 48 hours exposure, SRB): 1.7 10^−5 M
TGI (total growth inhibition, cytostatic effect) (DU-145; 48 h): 3.E−07 M
GI50 (DU-145): 100 nM
CC50 (DU-145): 1 µM
TGI (total growth inhibition, cytostatic effect) (SW-620; 48 h): 3.E−07 M
GI50 (SW-620): 100 nM
CC50 (SW-620): 2 µM
TGI (total growth inhibition, cytostatic effect) (MCF-7; 48 h): 2.E−06 M
GI50 (MCF-7): 700 nM
CC50 (MCF-7): 2 µM
TGI (total growth inhibition, cytostatic effect) (MB-231; 48 h): 1.E−06 M
GI50 (MB-231; 48 h): 300 nM
CC50 (MB-231; 48 h): 3 µM
TGI (total growth inhibition, cytostatic effect) (A498; 48 h): 3.E−07 M
GI50 (A498): 100 nM
CC50 (A498): 2000 nM
TGI (total growth inhibition, cytostatic effect) (A-549; 48 h): 1.E−06 M
GI50 (A-549; read-out: A-549 GI50): 170 nM
CC50 (A-549; read-out: A-549 LC50): 170 µM
GI50 (A-549; [1]): 700 nM
CC50 (A-549; [2]): 3 µM
A-549 TGI (A-549; Table 2, A-549, 48 hours exposure, SRB): 6.8 10^−7 M
TGI (total growth inhibition, cytostatic effect) (MEL-28; 48 h): 1.E−06 M
GI50 (MEL-28): 700 nM
CC50 (MEL-28): 2000 nM

Nc1nccc(-c2c3cccnc3n3c(N)nccc23)n1 [Compound 4, deoxyvariolin B]
GI50 (HT-29; [1]): 70 nM
CC50 (HT-29; [2]): 10 µM
TGI (total growth inhibition, cytostatic effect) (HT-29; Table 1, colon cell line HT-29, 48 hours exposure, SRB): 2.E−07 M
GI50 (DU-145): 100 nM
CC50 (DU-145): 7 µM
TGI (total growth inhibition, cytostatic effect) (DU-145; Table 1, prostate cell line DU-145, 48 hours exposure, SRB): 3.E−07 M
GI50 (SW-620): 70 nM
CC50 (SW-620): 10 µM
TGI (total growth inhibition, cytostatic effect) (SW-620; Table 1, colon cell line SW-620, 48 hours exposure, SRB): 3.E−07 M
GI50 (MCF-7): 100 nM
CC50 (MCF-7): 4 µM
TGI (total growth inhibition, cytostatic effect) (MCF-7; Table 1, breast cell line MCF-7, 48 hours exposure, SRB): 3.E−07 M
CC50 (OVCAR-3; Homo sapiens, OVCAR-3, 48 h, read-out: LC50 (50% net cell killing, cytotoxic effect)): 400 nM
GI50 (OVCAR-3; Homo sapiens, Table 1, ovary cell line OVCAR-3, 48 hours exposure, SRB, read-out: GI50 (50% growth inhibition)): 100 nM
TGI (total growth inhibition, cytostatic effect) (OVCAR-3; Table 1, ovary cell line OVCAR-3, 48 hours exposure, SRB): 3.E−07 M
GI50 (MB-231; 48 h): 70 nM
CC50 (MB-231; 48 h): 30 µM
TGI (total growth inhibition, cytostatic effect) (MB-231; Table 1, breast cell line MB-231, 48 hours exposure, SRB): 3.E−07 M
GI50 (A498): 70 nM
CC50 (A498): 700 nM
TGI (total growth inhibition, cytostatic effect) (A498; Table 1, kidney cell line A498, 48 hours exposure, SRB): 2.E−07 M
GI50 (A-549; [1]): 100 nM
CC50 (A-549; [2]): 0.4 µM
TGI (total growth inhibition, cytostatic effect) (A-549; Table 1, NSCL cell line A-549, 48 hours exposure, SRB): 2.E−07 M
GI50 (MEL-28): 70 nM
CC50 (MEL-28): 300 nM
TGI (total growth inhibition, cytostatic effect) (MEL-28; Table 1, melanoma cell line MEL-28, 48 hours exposure, SRB): 1.E−07 M

CS(=O)(=O)c1nccc(-c2c3cccnc3n3c(N)nccc23)n1 [Compound 6, sulfonyldeoxyvariolin]
GI50 (HT-29; read-out: HT-29 GI50): 29000 nM
CC50 (HT-29; read-out: HT-29 LC50): > 150 µM
GI50 (A-549; read-out: A-549 GI50): 4400 nM
CC50 (A-549; read-out: A-549 LC50): > 150 µM

CSc1nccc(-c2c3cccnc3n3c(SC)nccc23)n1 [Compound 19]
GI50 (HT-29; read-out: HT-29 GI50): 5900 nM
CC50 (HT-29; read-out: HT-29 LC50): 29 µM
GI50 (A-549; read-out: A-549 GI50): 5900 nM
CC50 (A-549; read-out: A-549 LC50): 29 µM

C[S+]([O-])c1nccc(-c2c3cccnc3n3c(N)nccc23)n1 (centres unmarked) [Compound 22, sulfinyldeoxyvariolin]
GI50 (HT-29; read-out: HT-29 GI50): 920 nM
CC50 (HT-29; read-out: HT-29 LC50): > 150 µM
GI50 (A-549; read-out: A-549 GI50): 1200 nM
CC50 (A-549; read-out: A-549 LC50): 92 µM

CC(=O)N(C(C)=O)c1nccc(-c2c3cccnc3n3c(N)nccc23)n1 [Compound 23a, N′-bisacetyldeoxyvariolin]
GI50 (HT-29; read-out: HT-29 GI50): 140 nM
CC50 (HT-29; read-out: HT-29 LC50): 2.8 µM
GI50 (A-549; read-out: A-549 GI50): 280 nM
CC50 (A-549; read-out: A-549 LC50): 2.8 µM

CC(=O)Nc1nccc2c(-c3ccnc(N(C(C)=O)C(C)=O)n3)c3cccnc3n12 [Compound 23b, N′-bisacetyl-N-acetyldeoxyvariolin]
GI50 (HT-29; read-out: HT-29 GI50): 100 nM
CC50 (HT-29; read-out: HT-29 LC50): 2.5 µM
GI50 (A-549; read-out: A-549 GI50): 740 nM
CC50 (A-549; read-out: A-549 LC50): 7.4 µM

CC(=O)N(C(C)=O)c1nccc(-c2c3cccnc3n3c(N(C(C)=O)C(C)=O)nccc23)n1 [Compound 23c, N′-bisacetyl-N-bisacetyldeoxyvariolin]
GI50 (HT-29; read-out: HT-29 GI50): 1100 nM
CC50 (HT-29; read-out: HT-29 LC50): 18 µM
GI50 (A-549; read-out: A-549 GI50): 2200 nM
CC50 (A-549; read-out: A-549 LC50): 22 µM

CC(=O)Nc1nccc(-c2c3cccnc3n3c(N)nccc23)n1 [Compound 23d, N′-acetyldeoxyvariolin]
GI50 (HT-29; read-out: HT-29 GI50): 630 nM
CC50 (HT-29; read-out: HT-29 LC50): 3.2 µM
GI50 (A-549; read-out: A-549 GI50): 630 nM
CC50 (A-549; read-out: A-549 LC50): 3.2 µM

CC(=O)Nc1nccc(-c2c3cccnc3n3c(NC(C)=O)nccc23)n1 [Compound 23e, N′-acetyl-N-acetyldeoxyvariolin]
GI50 (HT-29; read-out: HT-29 GI50): 5500 nM
CC50 (HT-29; read-out: HT-29 LC50): > 28 µM
GI50 (A-549; read-out: A-549 GI50): 2200 nM
CC50 (A-549; read-out: A-549 LC50): 28 µM
